Measured values published in patent US11135234B2, “Effective aminoglycoside antibiotic for multidrug-resistant bacteria” (MICROBIAL CHEMISTRY RESEARCH FOUNDATION, priority 2015, dated 2021).
Values after ≈ are worked out from the molar mass of the structure shown.

Assays:
S. aureus RN4220 = test: MIC, agar plate dilution method, S. aureus RN4220; assay type: cell-based, Staphylococcus aureus; details: for MIC: Staphylococcus aureus, RN4220, S. aureus RN4220, Sensitive bacterium, read-out: minimal inhibitory concentration (MIC); for minimal inhibitory concentration (MIC): S. aureus RN4220, Sensitive bacterium
In short: (§1)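 Minimal inhibitory concentration (μg/mL) was determined by agar plate dilution following the Japan Society of Chemotherapy method.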

S. aureus RN4220/pMS520 = test: MIC, agar plate dilution method, S. aureus RN4220/pMS520; assay type: cell-based, Staphylococcus aureus; details: for MIC: Staphylococcus aureus, MRSA, read-out: minimal inhibitory concentration (MIC), S. aureus RN4220/pMS520, MRSA; for minimal inhibitory concentration (MIC): S. aureus RN4220/pMS520, MRSA
In short: as §1

S. aureus MF490 = test: MIC, agar plate dilution method, S. aureus MF490; assay type: cell-based, Staphylococcus aureus; details: for MIC: Staphylococcus aureus, MRSA, read-out: minimal inhibitory concentration (MIC); for minimal inhibitory concentration (MIC): S. aureus MF490, MRSA
In short: as §1

E. faecium ATCC19434 = test: MIC, agar plate dilution method, E. faecium ATCC19434; assay type: cell-based, Enterococcus faecium; details: for MIC: Enterococcus faecium, ATCC19434, E. faecium ATCC19434, read-out: minimal inhibitory concentration (MIC); for minimal inhibitory concentration (MIC): E. faecium ATCC19434
In short: as §1

E. coli JM109/pMW218 = test: MIC, agar plate dilution method, E. coli JM109/pMW218; assay type: cell-based, Escherichia coli; details: for MIC: Escherichia coli, JM109/PMW218, E. coli JM109/pMW218, Sensitive bacterium, read-out: minimal inhibitory concentration (MIC); for minimal inhibitory concentration (MIC): E. coli JM109/pMW218, Sensitive bacterium
In short: as §1

[1] = test system: K. pneumoniae ATCC BAA-1705; test: MIC, agar plate dilution method, K. pneumoniae ATCC BAA-1705; assay type: cell-based, Klebsiella pneumoniae; details: for MIC: Klebsiella pneumoniae, ATCCBAA1705, K. pneumoniae ATCC BAA-1705, KPC-producing strain, read-out: minimal inhibitory concentration (MIC); for minimal inhibitory concentration (MIC): K. pneumoniae ATCC BAA-1705, KPC-producing strain
In short: as §1

[2] = test system: K. pneumoniae ATCC BAA-2146; test: MIC, agar plate dilution method, K. pneumoniae ATCC BAA-2146; assay type: cell-based, Klebsiella pneumoniae; details: for MIC: Klebsiella pneumoniae, ATCCBAA2146, K. pneumoniae ATCC BAA-2146, NDM-producing strain, read-out: minimal inhibitory concentration (MIC); for minimal inhibitory concentration (MIC): K. pneumoniae ATCC BAA-2146, NDM-producing strain
In short: as §1

[3] = test system: A. baumannii ATCC BAA-1710; test: MIC, agar plate dilution method, A. baumannii ATCC BAA-1710; assay type: cell-based, Acinetobacter baumannii; details: for MIC: Acinetobacter baumannii, ATCCBAA1710, A. baumannii ATCC BAA-1710, MDRA, read-out: minimal inhibitory concentration (MIC); for minimal inhibitory concentration (MIC): A. baumannii ATCC BAA-1710, MDRA
In short: as §1

S. marcescens TH-0447 = test: MIC, agar plate dilution method, S. marcescens TH-0447; assay type: cell-based, Serratia marcescens; details: for MIC: Serratia marcescens, TH0447, S. marcescens TH-0447, AMK-resistant, read-out: minimal inhibitory concentration (MIC); for minimal inhibitory concentration (MIC): S. marcescens TH-0447, AMK-resistant
In short: as §1

S. marcescens GN6944 = test: MIC, agar plate dilution method, S. marcescens GN6944; assay type: cell-based, Serratia marcescens; details: S. marcescens GN6944, GM-resistant; for MIC: Serratia marcescens, read-out: minimal inhibitory concentration (MIC)
In short: as §1

P. aeruginosa PAO1 = test: MIC, agar plate dilution method, P. aeruginosa PAO1; assay type: cell-based, Pseudomonas aeruginosa; details: for MIC: Pseudomonas aeruginosa, PAO1, P. aeruginosa PAO1, Sensitive bacterium, read-out: minimal inhibitory concentration (MIC); for minimal inhibitory concentration (MIC): P. aeruginosa PAO1, Sensitive bacterium
In short: as §1

P. aeruginosa PAO1/GN315 = test: MIC, agar plate dilution method, P. aeruginosa PAO1/GN315; assay type: cell-based, Pseudomonas aeruginosa; details: for MIC: Pseudomonas aeruginosa, read-out: minimal inhibitory concentration (MIC), P. aeruginosa PAO1/GN315, AMK-resistant; for minimal inhibitory concentration (MIC): P. aeruginosa PAO1/GN315, AMK-resistant
In short: as §1

P. aeruginosa MSC17707 = test: MIC, agar plate dilution method, P. aeruginosa MSC17707; assay type: cell-based, Pseudomonas aeruginosa; details: for MIC: Pseudomonas aeruginosa, MSC17707, P. aeruginosa MSC17707, AMK-resistant, read-out: minimal inhibitory concentration (MIC); for minimal inhibitory concentration (MIC): P. aeruginosa MSC17707, AMK-resistant
In short: as §1

P. aeruginosa MSC01035 = test: MIC, agar plate dilution method, P. aeruginosa MSC01035; assay type: cell-based, Pseudomonas aeruginosa; details: P. aeruginosa MSC01035, ABK-resistant; for MIC: Pseudomonas aeruginosa, read-out: minimal inhibitory concentration (MIC)
In short: as §1

## CNC1C(O[C@H]2OC(CO)[C@@H](NC(=N)N)[C@H](O)C2O)O[C@H]2CC(N)[C@@H](O[C@H]3CC(O)[C@H](N)CC3N)OC2C1O (stereo partly shown) [Compound S1-e, 4″-deamino-5-deoxy-4″-guanidinoapramycin]
S. aureus RN4220
  MIC: 1 µg/mL (≈ 1.77 µM)
S. aureus RN4220/pMS520
  MIC: 1 µg/mL (≈ 1.77 µM)
S. aureus MF490
  MIC: 4 µg/mL (≈ 7.07 µM)
E. faecium ATCC19434
  MIC: 4 µg/mL (≈ 7.07 µM)
E. coli JM109/pMW218
  MIC: 0.5 µg/mL (≈ 0.884 µM)
[1]
  MIC: 2 µg/mL (≈ 3.54 µM)
[2]
  MIC: 0.5 µg/mL (≈ 0.884 µM)
[3]
  MIC: 4 µg/mL (≈ 7.07 µM)
S. marcescens TH-0447
  MIC: 4 µg/mL (≈ 7.07 µM)
S. marcescens GN6944
  MIC: 4 µg/mL (≈ 7.07 µM)
P. aeruginosa PAO1
  MIC: 4 µg/mL (≈ 7.07 µM)
P. aeruginosa PAO1/GN315
  MIC: 4 µg/mL (≈ 7.07 µM)
P. aeruginosa MSC17707
  MIC: 8 µg/mL (≈ 14.1 µM)
P. aeruginosa MSC01035
  MIC: 8 µg/mL (≈ 14.1 µM)

## CNC1C(O[C@H]2OC(CO)[C@@H](NC)[C@H](O)C2O)O[C@H]2CC(N)[C@@H](O[C@@H]3C(N)C[C@@H](N)C(O)[C@H]3O)OC2C1O (stereo partly drawn) [Compound S1-f, 5-epi-4″-N-methylapramycin]
S. aureus RN4220
  minimal inhibitory concentration (MIC): 2 µg/mL (≈ 3.61 µM)
S. aureus RN4220/pMS520
  minimal inhibitory concentration (MIC): 2 µg/mL (≈ 3.61 µM)
S. aureus MF490
  minimal inhibitory concentration (MIC): 8 µg/mL (≈ 14.5 µM)
E. faecium ATCC19434
  minimal inhibitory concentration (MIC): 16 µg/mL (≈ 28.9 µM)
E. coli JM109/pMW218
  minimal inhibitory concentration (MIC): 1 µg/mL (≈ 1.81 µM)
[1]
  minimal inhibitory concentration (MIC): 2 µg/mL (≈ 3.61 µM)
[2]
  minimal inhibitory concentration (MIC): 1 µg/mL (≈ 1.81 µM)
[3]
  minimal inhibitory concentration (MIC): 8 µg/mL (≈ 14.5 µM)
S. marcescens TH-0447
  minimal inhibitory concentration (MIC): 8 µg/mL (≈ 14.5 µM)
S. marcescens GN6944
  minimal inhibitory concentration (MIC): 4 µg/mL (≈ 7.23 µM)
P. aeruginosa PAO1
  minimal inhibitory concentration (MIC): 4 µg/mL (≈ 7.23 µM)
P. aeruginosa PAO1/GN315
  minimal inhibitory concentration (MIC): 4 µg/mL (≈ 7.23 µM)
P. aeruginosa MSC17707
  minimal inhibitory concentration (MIC): 8 µg/mL (≈ 14.5 µM)
P. aeruginosa MSC01035
  minimal inhibitory concentration (MIC): 8 µg/mL (≈ 14.5 µM)

## CNC1C(O[C@H]2OC(CO)[C@@H](NCCN)[C@H](O)C2O)O[C@H]2CC(N)[C@@H](O[C@@H]3C(N)C[C@@H](N)C(O)[C@H]3O)OC2C1O (stereo partly shown) [Compound S1-g, 4″-N-(2-aminoethyl)-5-epiapramycin]
S. aureus RN4220
  MIC: 4 µg/mL (≈ 6.87 µM)
S. aureus RN4220/pMS520
  MIC: 2 µg/mL (≈ 3.43 µM)
S. aureus MF490
  MIC: 8 µg/mL (≈ 13.7 µM)
E. faecium ATCC19434
  MIC: 16 µg/mL (≈ 27.5 µM)
E. coli JM109/pMW218
  MIC: 1 µg/mL (≈ 1.72 µM)
[1]
  MIC: 2 µg/mL (≈ 3.43 µM)
[2]
  MIC: 2 µg/mL (≈ 3.43 µM)
[3]
  MIC: 4 µg/mL (≈ 6.87 µM)
S. marcescens TH-0447
  MIC: 8 µg/mL (≈ 13.7 µM)
S. marcescens GN6944
  MIC: 8 µg/mL (≈ 13.7 µM)
P. aeruginosa PAO1
  MIC: 4 µg/mL (≈ 6.87 µM)
P. aeruginosa PAO1/GN315
  MIC: 4 µg/mL (≈ 6.87 µM)
P. aeruginosa MSC17707
  MIC: 4 µg/mL (≈ 6.87 µM)
P. aeruginosa MSC01035
  MIC: 8 µg/mL (≈ 13.7 µM)

## CNC1C(O[C@H]2OC(CO)[C@@H](NCCCN)[C@H](O)C2O)O[C@H]2CC(N)[C@@H](O[C@@H]3C(N)C[C@@H](N)C(O)[C@H]3O)OC2C1O (stereo partly shown) [Compound S1-h, 4″-N-(3-aminopropyl)-5-epiapramycin]
S. aureus RN4220
  minimal inhibitory concentration (MIC): 2 µg/mL (≈ 3.35 µM)
S. aureus RN4220/pMS520
  minimal inhibitory concentration (MIC): 2 µg/mL (≈ 3.35 µM)
S. aureus MF490
  minimal inhibitory concentration (MIC): 8 µg/mL (≈ 13.4 µM)
E. faecium ATCC19434
  minimal inhibitory concentration (MIC): 16 µg/mL (≈ 26.8 µM)
E. coli JM109/pMW218
  minimal inhibitory concentration (MIC): 1 µg/mL (≈ 1.68 µM)
[1]
  minimal inhibitory concentration (MIC): 2 µg/mL (≈ 3.35 µM)
[2]
  minimal inhibitory concentration (MIC): 1 µg/mL (≈ 1.68 µM)
[3]
  minimal inhibitory concentration (MIC): 8 µg/mL (≈ 13.4 µM)
S. marcescens TH-0447
  minimal inhibitory concentration (MIC): 8 µg/mL (≈ 13.4 µM)
S. marcescens GN6944
  minimal inhibitory concentration (MIC): 8 µg/mL (≈ 13.4 µM)
P. aeruginosa PAO1
  minimal inhibitory concentration (MIC): 4 µg/mL (≈ 6.7 µM)
P. aeruginosa PAO1/GN315
  minimal inhibitory concentration (MIC): 4 µg/mL (≈ 6.7 µM)
P. aeruginosa MSC17707
  minimal inhibitory concentration (MIC): 4 µg/mL (≈ 6.7 µM)
P. aeruginosa MSC01035
  minimal inhibitory concentration (MIC): 8 µg/mL (≈ 13.4 µM)

## CN[C@@H]1[C@@H](O[C@H]2O[C@H](CO)[C@@H](NC(CN)CN)[C@H](O)[C@H]2O)O[C@H]2C[C@@H](N)[C@@H](O[C@H]3[C@@H](O)[C@@H](O)[C@H](N)C[C@@H]3N)O[C@@H]2[C@@H]1O [Compound S1-i, 4″-N-(1,3-diaminopropan-2-yl)-5-epiapramycin]
S. aureus RN4220
  minimal inhibitory concentration (MIC): 2 µg/mL (≈ 3.27 µM)
S. aureus RN4220/pMS520
  minimal inhibitory concentration (MIC): 2 µg/mL (≈ 3.27 µM)
S. aureus MF490
  minimal inhibitory concentration (MIC): 4 µg/mL (≈ 6.54 µM)
E. faecium ATCC19434
  minimal inhibitory concentration (MIC): 4 µg/mL (≈ 6.54 µM)
E. coli JM109/pMW218
  minimal inhibitory concentration (MIC): 1 µg/mL (≈ 1.63 µM)
[1]
  minimal inhibitory concentration (MIC): 1 µg/mL (≈ 1.63 µM)
[2]
  minimal inhibitory concentration (MIC): 2 µg/mL (≈ 3.27 µM)
[3]
  minimal inhibitory concentration (MIC): 4 µg/mL (≈ 6.54 µM)
S. marcescens TH-0447
  minimal inhibitory concentration (MIC): 8 µg/mL (≈ 13.1 µM)
S. marcescens GN6944
  minimal inhibitory concentration (MIC): 4 µg/mL (≈ 6.54 µM)
P. aeruginosa PAO1
  minimal inhibitory concentration (MIC): 2 µg/mL (≈ 3.27 µM)
P. aeruginosa PAO1/GN315
  minimal inhibitory concentration (MIC): 4 µg/mL (≈ 6.54 µM)
P. aeruginosa MSC17707
  minimal inhibitory concentration (MIC): 2 µg/mL (≈ 3.27 µM)
P. aeruginosa MSC01035
  minimal inhibitory concentration (MIC): 4 µg/mL (≈ 6.54 µM)
